We go through two compounds from ChEMBL document CHEMBL5113444, “Synthesis of biotinylated-LPG as a chemical biology tool enabling discovery of ALCAT1 modulators” (Bioorg Med Chem Lett, 2022).

Active and inactive are the calls of the source. The rule behind the calls is not given here.

The target of experiment [1] is T1, Lysocardiolipin acyltransferase 1 (Homo sapiens) (UniProt Q6UWP7).
T1 sequence (whole entry): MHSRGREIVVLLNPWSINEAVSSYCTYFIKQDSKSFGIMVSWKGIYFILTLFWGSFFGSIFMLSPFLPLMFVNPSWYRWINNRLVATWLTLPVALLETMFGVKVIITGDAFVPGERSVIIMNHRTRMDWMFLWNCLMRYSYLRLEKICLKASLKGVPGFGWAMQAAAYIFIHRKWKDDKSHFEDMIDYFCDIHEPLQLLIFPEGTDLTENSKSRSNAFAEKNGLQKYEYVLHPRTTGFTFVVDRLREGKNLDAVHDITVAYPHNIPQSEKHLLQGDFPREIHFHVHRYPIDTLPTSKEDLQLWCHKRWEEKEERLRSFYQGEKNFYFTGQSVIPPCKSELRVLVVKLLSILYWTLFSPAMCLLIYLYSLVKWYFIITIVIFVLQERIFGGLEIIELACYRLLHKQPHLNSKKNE
In words: Substrate activity at recombinant human ALCAT1 expressed in HEK293 cells using oleoyl-CoA as substrate assessed as biotinylated (BTN)-di-oleoyl LPG product formation by Rapidfire-triple quad mass spectrometry analysis. The settings on record: filed as modulator, time <= 64.0 min, TDE = time-dependent effect.

Experiment [2] concerns the target T1, Lysocardiolipin acyltransferase 1 (Homo sapiens). In words: Substrate activity at recombinant human ALCAT1 expressed in HEK293 cells using oleoyl-CoA as substrate assessed as acylated product formation by Rapidfire-triple quad mass spectrometry analysis. The settings on record: filed as modulator.

For `O=C1N[C@H]2[C@H](CS[C@H]2CCCCC(=O)OCCCCCCC/C=C\CCCCCCCC(=O)OC[C@@H](O)COP(=O)(O)OCC(O)CO)N1` (some centres not stated), in experiment [1], the Activity entry was “Tde”.

On to `CCCCCCCCCCCCCCCC(=O)OC[C@H](O)COP(=O)(O)OC[C@H](O)CO`, for which the outcome in experiment [2] was Active.
